Laboratory results published in PMC6556873, “Rapid Covalent-Probe Discovery by Electrophile-Fragment Screening” (Journal of the American Chemical Society, 2019).
Where two headings read alike, the source gives them in different places.

How the values were obtained:
BSA = target: T1, BSA (Bos taurus, UniProt P02769); design: Intact protein LC/MS covalent labelling, fragments in pools of five, 200 uM each, 4 °C; details: 24 h, 4 °C, pool of five; 200 µM; covalent
T1 construct: gene ALB

NUDT7 = target: T2, NUDT7 (Homo sapiens, UniProt P0C024); design: Intact protein LC/MS covalent labelling, fragments in pools of five, 200 uM each, 4 °C; details: 24 h, 4 °C, pool of five; 200 µM; covalent
T2 construct: residues 14-235, E. coli, pNIC28-Bsa4, N-terminal His6 tag removed by TEV, construct 26672 Da

OTUB2 (OTUB2A) = target: T3, OTUB2 (OTUB2A) (Homo sapiens, UniProt Q96DC9); design: Intact protein LC/MS covalent labelling, fragments in pools of five, 200 uM each, 4 °C; details: 24 h, 4 °C, pool of five; 200 µM; covalent
T3 construct: full length residues 1-234, E. coli BL21(DE3)-R3, His tag removed by TEV, construct 27312 Da
T3 sequence (Q96DC9 1-234): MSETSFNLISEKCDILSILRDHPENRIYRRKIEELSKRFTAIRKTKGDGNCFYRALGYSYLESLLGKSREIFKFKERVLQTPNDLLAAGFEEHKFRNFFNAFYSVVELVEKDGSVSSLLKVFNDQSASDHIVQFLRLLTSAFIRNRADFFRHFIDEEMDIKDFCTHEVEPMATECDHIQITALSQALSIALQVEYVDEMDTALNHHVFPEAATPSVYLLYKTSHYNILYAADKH

PCAF = target: T4, PCAF (Homo sapiens, UniProt Q92831); design: Intact protein LC/MS covalent labelling, fragments in pools of five, 200 uM each, 4 °C; details: 24 h, 4 °C, pool of five; 200 µM; covalent
T4 construct: gene KAT2B

in vitro [1] = experiment: in vitro; design: species or system CCD841, HEK293; details: human, hb2 cells, read-out: HB-2 Cells Viability (%)
in vitro [2] = experiment: in vitro; design: species or system HB2, HEK293; details: human, ccd841 cells
in vitro [3] = experiment: in vitro; design: species or system HB2, CCD841; details: human, hek293 cells

T2 sequence (P0C024 14-235): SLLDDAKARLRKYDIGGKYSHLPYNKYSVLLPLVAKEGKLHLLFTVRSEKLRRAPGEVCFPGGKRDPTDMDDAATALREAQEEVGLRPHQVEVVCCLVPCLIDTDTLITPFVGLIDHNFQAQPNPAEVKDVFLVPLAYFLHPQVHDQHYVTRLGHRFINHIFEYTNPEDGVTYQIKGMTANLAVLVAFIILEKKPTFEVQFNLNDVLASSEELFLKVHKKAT
T1 sequence (P02769 whole entry, the tested form may be a part): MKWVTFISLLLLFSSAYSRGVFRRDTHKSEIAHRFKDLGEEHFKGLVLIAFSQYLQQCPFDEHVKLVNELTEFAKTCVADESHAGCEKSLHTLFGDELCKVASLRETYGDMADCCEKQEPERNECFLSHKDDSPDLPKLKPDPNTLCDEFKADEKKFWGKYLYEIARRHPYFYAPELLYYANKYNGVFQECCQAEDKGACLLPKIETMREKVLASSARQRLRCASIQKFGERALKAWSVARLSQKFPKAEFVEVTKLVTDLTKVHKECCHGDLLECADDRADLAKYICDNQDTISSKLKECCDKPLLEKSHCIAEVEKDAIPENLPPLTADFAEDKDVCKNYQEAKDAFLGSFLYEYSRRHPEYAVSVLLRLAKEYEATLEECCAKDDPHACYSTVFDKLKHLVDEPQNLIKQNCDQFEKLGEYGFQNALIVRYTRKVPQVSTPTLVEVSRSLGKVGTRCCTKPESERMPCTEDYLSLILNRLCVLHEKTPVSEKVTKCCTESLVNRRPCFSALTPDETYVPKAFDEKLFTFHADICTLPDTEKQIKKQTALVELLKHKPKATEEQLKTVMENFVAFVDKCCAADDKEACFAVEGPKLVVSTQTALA
T4 sequence (Q92831 whole entry, the tested form may be a part): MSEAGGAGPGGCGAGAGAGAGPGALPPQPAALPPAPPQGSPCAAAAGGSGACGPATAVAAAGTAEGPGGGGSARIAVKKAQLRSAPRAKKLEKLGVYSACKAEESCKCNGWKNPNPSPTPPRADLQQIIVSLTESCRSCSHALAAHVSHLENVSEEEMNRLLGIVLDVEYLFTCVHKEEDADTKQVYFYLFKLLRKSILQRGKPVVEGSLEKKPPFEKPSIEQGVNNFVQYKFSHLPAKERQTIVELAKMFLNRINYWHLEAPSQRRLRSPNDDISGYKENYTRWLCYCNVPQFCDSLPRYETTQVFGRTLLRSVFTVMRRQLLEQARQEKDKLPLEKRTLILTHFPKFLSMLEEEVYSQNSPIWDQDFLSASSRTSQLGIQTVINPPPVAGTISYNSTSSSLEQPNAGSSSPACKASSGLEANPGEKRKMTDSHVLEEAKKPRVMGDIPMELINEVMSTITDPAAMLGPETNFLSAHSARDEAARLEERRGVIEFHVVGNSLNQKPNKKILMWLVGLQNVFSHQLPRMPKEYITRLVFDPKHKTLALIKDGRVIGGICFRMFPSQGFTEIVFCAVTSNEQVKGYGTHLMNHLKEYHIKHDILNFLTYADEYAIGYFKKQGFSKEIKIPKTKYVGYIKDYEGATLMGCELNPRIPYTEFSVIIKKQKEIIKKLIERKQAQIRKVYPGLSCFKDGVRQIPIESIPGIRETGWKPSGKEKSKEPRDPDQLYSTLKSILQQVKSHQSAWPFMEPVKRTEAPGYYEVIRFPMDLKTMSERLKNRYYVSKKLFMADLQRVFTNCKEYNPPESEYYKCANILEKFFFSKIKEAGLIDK

Compound	BSA (BSA)	NUDT7 (NUDT7)	OTUB2 (OTUB2 (OTUB2A))	PCAF (PCAF)	viability at 48 h, 10 µM (in vitro [1]) [%]	viability at 48 h, 10 µM (in vitro [2]) [%]	viability at 48 h, 10 µM (in vitro [3]) [%]
O=C(CCl)NCC1CCOC1 (stereo not drawn) [PCM-0102596]	0	0	0.13	0	93.6	90.8	112
C=CC(=O)Nc1cc(-c2ccnn2C)ccc1C [PCM-0102543]	0	0	0	0	103	134	93.5
O=C(CCl)NCC1COc2ccccc2O1 (stereo not drawn) [PCM-0102881]	0	0	0.39	0	81	76.2	56.3
Cn1cccc1C(=O)NC(=O)CCl [PCM-0102863]	0.2	0	0	0	106	112	92.2
C=CC(=O)NC(C#N)C(C)C (stereo not drawn) [PCM-0102529]	0	0	0	0	102	98.9	89.7
CCN(C(=O)CCl)c1ccc(F)cc1 [PCM-0102900]	0	0.29	0	0	61.2	13.6	10.3
C=CC(=O)Nc1nc2ccccc2s1 [PCM-0102695]	0	0.18	0	0	33.8	50.3	51.9
O=C(CCl)NNC(=O)c1ccc(F)cc1 [PCM-0102430]	0	0	0.31	0	94.9	93.2	93.4
O=C(CCl)Nc1cc(F)cc(F)c1 [PCM-0102874]	0	0.18	0	0	14.3	58.3	3.1
O=C(CCl)Nc1ncc(Br)s1 [PCM-0102326]	0	0	0.06	0	38	47.7	23
O=C(CCl)N1CCCCCCC1 [PCM-0102377]	0	0	0	0	36.7	82.1	43.5
O=C(CCl)Nc1cc(Cl)ccc1C(=O)O [PCM-0102412]	0	0.16	0.07	0	99.3	100	89.4
Cc1nc(NC(=O)CCl)sc1-c1ccccc1 [PCM-0102788]	0	0.36	0.09	0	35.7	23.8	26.7
O=C(CCl)N1CCN(S(=O)(=O)c2ccccc2Cl)CC1 [PCM-0102837]	0	0.18	0	0	4.7	46.9	6
O=C(CCl)Nc1cc2c(cc1Cl)OCCO2 [PCM-0102585]	0	0.12	0	0	38.7	68	15
Cc1n[nH]c(C)c1NC(=O)CCl [PCM-0102588]	0	0	0	0	102	98.7	98.6
Cc1cccc(C(=O)O)c1NC(=O)CCl [PCM-0102167]	0	0	0	0	101	102	104

Compound	BSA (BSA)	NUDT7 (NUDT7)	OTUB2 (OTUB2 (OTUB2A))	PCAF (PCAF)	viability at 48 h, 10 µM (in vitro [1]) [%]	viability at 48 h, 10 µM (in vitro [2]) [%]	viability at 48 h, 10 µM (in vitro [3]) [%]
CN(C)c1ccc(Cl)cc1NC(=O)CCl [PCM-0102840]	0	0.14	0.06	0.23	29.2	85.9	63.2
O=C(O)C1Cc2ccccc2CN1C(=O)CCl (stereo not drawn) [PCM-0102761]	0	0.21	0	0	98.1	91.2	95.9
NC(=O)c1c(NC(=O)CCl)sc2c1CCCC2 [PCM-0102620]	0	0.36	0.16	0	42.3	73.1	29.6
O=C(CCl)N1CCC(c2nc3ccccc3s2)CC1 [PCM-0103068]	0	0.65	0	0	17.4	46	15.4
C=CC(=O)N1CCCN(C(=O)C2CCCO2)CC1 (stereo not drawn) [PCM-0102519]	0	0	0	0	98.2	108	95.5
CS(=O)(=O)c1ccc(NC(=O)CCl)cc1 [PCM-0102335]	0	0.06	0.3	0	37.1	46	2.7
Cc1nn(C)c(C)c1NC(=O)CCl [PCM-0102949]	0	0	0	0	93.9	83.8	99.6
C=CC(=O)NCC1CCN(C)c2ccccc21 (stereo not drawn) [PCM-0102644]	0	0	0	0	106	98.5	73
Cc1cccc(NC(=O)CCl)c1 [PCM-0102116]	0	0	0.11	0	33.7	66.4	9
Cc1c(Cl)cccc1NC(=O)CCl [PCM-0102130]	0	0	0	0	26	48.1	4.9
O=C(CCl)N(C1CCCC1)C1CCS(=O)(=O)C1 (stereo not drawn) [PCM-0102313]	0	0.11	0	0	64.5	65.9	42.7
Cc1sc2nc(-c3cccc(NC(=O)CCl)c3)[nH]c(=O)c2c1C [PCM-0102264]	0	0	0.13	0	64.6	92.8	61.2
NC(=O)C1CN(C(=O)CCl)c2ccccc2O1 (stereo not drawn) [PCM-0102245]	0	0.12	0.15	0	58.4	60.8	31.8
CC(C)(C)c1cc(NC(=O)CCl)n(-c2ccccc2)n1 [PCM-0102536]	0	0	0.14	0	33.5	65.2	10.6
O=C(CCl)Nc1cc(C(=O)O)ccc1Cl [PCM-0102590]	0	0	0	0	103	102	110
C#Cc1cccc(NC(=O)CCl)c1 [PCM-0102735]	0	0	0.09	0	90.9	85.7	87
